Here are results for one compound from patent US9072734B2, “Quaternary ammonium salt compounds” (Teijin Pharma Limited, priority 2009, dated 2015).

Experiment [1] has as its target T1, human M3 muscarinic receptor (Homo sapiens, UniProt P20309).
T1 construct: expressed in transfected cells; host or cells: CHO-K1
In words: Inhibitory effect on methacholine-induced calcium influx, FLIPR assay, CHO-K1 cells stably expressing the human M3 muscarinic receptor. It counts as cell-based. To be noted: inhibition of calcium influx induced by methacholine. The method in brief: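 Dye-loaded hM3 CHO-K1 cells were preincubated 180 s with compound solutions prepared at 10 two-fold concentrations (0.01–1000 nM). A 30 nM methacholine solution was then added. Fluorescence was traced for 170 s; max−min signal gave % inhibition against agonist and no-agonist controls, and IC50 came from a four-parameter logistic fit.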

Experiment [2] concerns acetylcholine-induced bronchoconstriction in guinea pigs. In words: Effects on acetylcholine-induced bronchoconstriction in guinea pigs. It counts as in vivo, guinea pig. The following applies: Cavia porcellus; 24 hours after 25 μg/kg of the compounds were administered; read-out: percentage of bronchoconstriction suppression with respect to the acetylcholine stimulation. On the procedure: These in vivo assays are used to evaluate the bronchoprotective effects based on the M3 muscarinic receptor antagonist activity and the β2 adrenergic receptor agonist activity of test compounds. Hartley male guinea pigs (Nippon SLC, Inc.) weighing about 400-500 g were used. The animals were anesthetized by inhalation of Fluothane (Takeda Pharmaceutical Company Limited) in a plastic box. The test compounds were dissolved in physiological saline containing DMSO, and administered through the nasal cavity into the trachea at a dose of 0.04-25 μg/kg and at a volume of 0.4 mL/kg. For control animals, solvent without a test compound was administered. In general, animals awake several minutes after completion of the administration. The animals were anesthetized with an intraperitoneal administration of 33% urethane/0.8% α-chloralose at a dose of 3 mL/kg. In order to intravenously administer acetylcholine or histamine, a catheter was inserted into the carotid artery. In order to measure artificial respiration and airway ventilation pressure, a cannula was inserted into the trachea. Artificial respiration was applied to the animals at a volume of 10 mL/kg and at a frequency of 60/minute, using a ventilator (Harvard Apparatus). The airway ventilation pressure was measured by the Konzett-Roessler method using a general respiratory function analysis system (M.I.P.S). Prior to administration of acetylcholine or histamine, the airway ventilation pressure was measured and baseline values were recorded. Then, physiological saline was administered through the carotid artery catheter at a volume of 0.4 mL/kg, and the airway ventilation pressure was measured. Bronchoconstrictor response was induced by administering acetylcholine (40 μg/kg, 0.4 mL/kg) or histamine (15 μg/kg, 0.4 mL/kg) through the carotid artery catheter one hour after the administration of the test compounds, and the airway ventilation pressure at the maximum contractile response was recorded. In addition, in order to evaluate duration of action of the test compounds, the above-mentioned dose of acetylcholine or histamine was administered, 1 hour, 6 hours, 12 hours, 18 hours, and 24 hours after the administration of test compounds, and the airway ventilation pressure was measured in the same way. The percentage of suppression by the test compounds with respect to the airway contractile response was calculated according to the following formula. (%) Percentage of the airway constriction suppression=(Airway ventilation pressure of test compound-dosed and acetylcholine- or histamine-dosed animals−Baseline value)/(Airway ventilation pressure of acetylcholine- or histamine-dosed animals−Baseline value)×100
The 50% inhibitory doses (ID50 values) of the test compounds were analyzed by a sigmoidal logistic model using XLfit4 (IDBS, Ltd.) for the percentage of the bronchoconstriction suppression at different doses of the test compounds.

For experiment [3], the target named is T2, human β2 adrenergic receptor (Homo sapiens, UniProt P07550).
T2 construct: expressed in transfected cells; host or cells: CHO-K1
T2 sequence (P07550 whole entry): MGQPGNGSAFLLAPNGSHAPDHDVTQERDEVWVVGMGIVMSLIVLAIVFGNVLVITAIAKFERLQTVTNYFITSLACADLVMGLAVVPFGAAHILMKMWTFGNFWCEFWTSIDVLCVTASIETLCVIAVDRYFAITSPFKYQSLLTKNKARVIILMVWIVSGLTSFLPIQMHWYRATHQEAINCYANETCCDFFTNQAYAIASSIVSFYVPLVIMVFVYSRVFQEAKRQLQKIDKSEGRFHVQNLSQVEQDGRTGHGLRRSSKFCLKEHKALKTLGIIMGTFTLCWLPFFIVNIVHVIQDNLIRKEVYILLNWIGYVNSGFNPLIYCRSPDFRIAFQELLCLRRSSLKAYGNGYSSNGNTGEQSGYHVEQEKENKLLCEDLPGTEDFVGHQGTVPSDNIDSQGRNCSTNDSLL
Kind of experiment: Whole-cell cAMP Flashplate assay using CHO-K1 cells stably expressing human β2 adrenergic receptor. It counts as cell-based. The following applies: cAMP production. For orientation: Changes in cAMP serve as a functional read-out for many G protein-coupled receptors.

pEC50, pIC50: −log10 of the molar value. Structures can show the parent of a compound that is named as a salt. A value given as a limit tells only on which side of the number the result lay.

T1 sequence (P20309 whole entry): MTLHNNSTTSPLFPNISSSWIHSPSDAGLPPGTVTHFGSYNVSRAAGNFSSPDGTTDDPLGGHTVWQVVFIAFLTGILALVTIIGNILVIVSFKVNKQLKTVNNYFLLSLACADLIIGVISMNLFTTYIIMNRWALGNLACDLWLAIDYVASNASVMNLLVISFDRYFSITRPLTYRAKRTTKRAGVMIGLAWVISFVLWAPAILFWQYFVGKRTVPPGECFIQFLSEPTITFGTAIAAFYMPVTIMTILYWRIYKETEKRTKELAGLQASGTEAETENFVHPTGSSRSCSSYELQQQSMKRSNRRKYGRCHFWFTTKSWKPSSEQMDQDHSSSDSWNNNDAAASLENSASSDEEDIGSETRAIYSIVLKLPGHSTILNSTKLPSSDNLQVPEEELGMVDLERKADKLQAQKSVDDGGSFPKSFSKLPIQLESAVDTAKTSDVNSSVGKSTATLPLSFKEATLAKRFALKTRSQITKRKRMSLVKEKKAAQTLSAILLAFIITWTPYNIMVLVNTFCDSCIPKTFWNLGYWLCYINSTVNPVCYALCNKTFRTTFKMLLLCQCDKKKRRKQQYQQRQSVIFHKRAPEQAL

With `C[N+]1(C)CCC(OC(=O)Nc2cc(CCCOc3ccc(CCNC[C@H](O)c4ccc(O)c5[nH]c(=O)ccc45)cc3)ccc2-c2ccccc2)CC1` [Example 77, 4-{[(5-{3-[4-(2-{[(2R)-2-hydroxy-2-(8-hydroxy-2-oxo-1,2-dihydroquinolin-5-yl)ethyl]amino}ethyl)phenoxy]propyl}-2-phenylphenyl)carbamoyl]oxy}-1,1-dimethylpiperidin-1-ium trifluoroacetate], in experiment [1], the pIC50 was 7.44. In addition, the inhibition in vivo at 0.025 mg/kg in experiment [2] was not below 50%. This compound also gave a pEC50 in experiment [3] of 8.82.

As a reminder, the pIC50 is the negative decadic logarithm of the IC50, by convention in mol/L. A word on the pEC50: it is −log10 of the EC50, conventionally taken in molar units. The low end stands for a large EC50, the high end for a small EC50.
